Measurements published in patent US20240239788A1, “SMALL MOLECULE INHIBITORS OF KRAS G12D MUTANT” (Merck Sharp & Dohme LLC, priority 2021, published 2024).
Read-outs that look alike come from different tables or passages of the source.

What was measured:
[1] = test system: AsPC-1 cells containing homozygous KRAS-G12D activating mutation; assay: Cellular phospho-ERK assay (Examples 1a-106); type: cell-based; details: read-out: IC50 (nM) pERK (Cell)
Description: 5% CO? overnight. […] Assay plates were read on a EnVision Multimode Plate Reader (PerkinElmer) and the ratio of p-Erk vs total Erk in each well was used as the final readout.

[2] = target: KRAS protein containing G12D mutation (Homo sapiens (Human), UniProt P01116, G12D); assay: SOS-catalyzed nucleotide exchange assay (GNE), TR-FRET; type: biochemical; details: biotinylated KRAS G12D, SOS and GTP, 60-minute incubation
KRAS protein containing G12D mutation, sequence (P01116 other isoform, or with tags, fused parts or gaps G12D (already in the parent)): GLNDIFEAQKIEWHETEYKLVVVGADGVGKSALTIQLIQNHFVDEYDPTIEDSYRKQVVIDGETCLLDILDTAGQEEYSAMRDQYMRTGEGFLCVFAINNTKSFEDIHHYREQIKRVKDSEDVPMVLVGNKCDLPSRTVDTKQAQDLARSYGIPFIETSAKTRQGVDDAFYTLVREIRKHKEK
Protocol: Compounds are added to this complex and then after a 60-minute incubation time the mixture is treated with SOS and unlabeled GTP. Small molecule inhibitors stabilize the Bodipy-GDP complex whereas the untreated protein rapidly exchanges Bodipy-GDP for unlabeled GTP resulting in reduced TR-FRET signal.
This solution is referred to as biotinylated KRAS G12D stock solution.

[3] = target: KRAS G12D / Ras binding domain of C-RAF (Homo sapiens (Human), UniProt P01116, G12D); assay: RAS:RAF-RBD binding assay (cRaf), TR-FRET; details: biotinylated KRAS G12D, GST-C-RAF RBD
KRAS G12D / Ras binding domain of C-RAF, sequence (P01116 other isoform, or with tags, fused parts or gaps G12D (already in the parent)): as above
Protocol: Compounds are added to KRAS and then after a 30-minute incubation time the RAF-RBD and detection antibodies are added. Small molecule inhibitors that block the interaction of c-RAF-RBD prevent generation of a TR-FRET signal.
Biotinylated KRAS G12D protein is diluted to 20 nM in assay buffer (20 mM HEPES pH 7.5, 150 mM sodium chloride, 10 mM magnesium chloride, and 0.01% Tween20).
Each test compound (10 mM stock in DMSO) is diluted in DMSO to make a 10-point, 3-fold dilution series in a 384-well low dead volume microplate (Labcyte, catalog #LP-0200).
Each well of the assay plate receives 5 μL of Biotinylated KRAS G12D assay solution and is incubated at room temperature for 30 minutes. Each well then receives 5 μL of 100 nM GST-C-RAF RBD protein and a 1:100 dilution of both anti-GST-d2 (Cisbio catalog #61GSTDLA) and Streptavidin-Tb cryptate (Cisbio catalog #610SATLA) in assay buffer and the plate is mixed and briefly centrifuged followed by a 60 minute incubation at room temperature.
The apparent effect as a function of compound concentration is fit to a four-parameter logistic equation.

[4] = AsPC-1 cells, 2 hours, ratio of p-Erk vs total Erk
[5] = Homo sapiens, ASPC1, 2 h, AsPC-1 cells, 2 hours, ratio of p-Erk vs total Erk

## CN(C)C[C@]1(COc2nc(N3CC4CCC(C3)N4)c3cc(Cl)c(-c4cc(O)cc5ccccc45)c(F)c3n2)CC1(F)F (atropisomer, axis not shown) [Example 11a, 4-(4-(3.8-diazabicyclo[3.2.1]octan-3-yl)-6-chloro-2-(((S)-1-((dimethylamino)methyl)-2,2-difluorocyclopropyl)methoxy)-8-fluoroquinazolin-7-yl)naphthalen-2-ol]
[1]; [4]
  IC50: 2080 nM
[2]
  IC50: 24.1 nM
[3]; read-out: IC50 (nM) (cRaf)
  IC50: 4240 nM

## CN(C)C[C@]1(COc2nc(N3CC4CCC(C3)N4)c3cc(Cl)c(-c4cc(O)cc5ccccc45)c(F)c3n2)CC1(F)F (atropisomer, axis not shown) [Example 11b, 4-(4-(3.8-diazabicyclo[3.2.1]octan-3-yl)-6-chloro-2-(((S)-1-((dimethylamino)methyl)-2,2-difluorocyclopropyl)methoxy)-8-fluoroquinazolin-7-yl)naphthalen-2-ol]
[1]; [4]
  IC50: 6260 nM
[2]
  IC50: 131 nM
[3]; read-out: IC50 (nM) (cRaf)
  IC50: 7240 nM

## CN(C)C[C@@]1(COc2nc(N3C[C@H]4CC[C@@](C)(C3)N4)c3cc(Cl)c(-c4c(F)cc(F)c5ccc(N)nc45)c(F)c3n2)CC1(F)F (single isomer, unassigned) [92b]
[1]; [4]
  IC50: 5320 nM
[2]
  IC50: 236 nM
[3]; IC50 (nM) (cRaf)
  IC50: 9210 nM

## C#Cc1cccc2cc(O)cc(-c3c(F)cc4c(N5C[C@H]6CC[C@@](C)(C5)N6)nc(OCC5(CN6CC[C@@H](F)C6)CC5)nc4c3F)c12 (single isomer, unassigned) [103a]
[1]; [4]
  IC50: 3.76 nM
[2]
  IC50: 1.05 nM
[3]; IC50 (nM) (cRaf)
  IC50: 26.2 nM

## Cc1c(Cl)cc2[nH]nc(C)c2c1-c1c(F)cc2c(N3C[C@H]4CC[C@@](C)(C3)N4)nc(OCC3(CN(C)C)CC3(F)F)nc2c1F (single isomer, unassigned) [Ex 68]
[1]; [5]
  IC50: 2380 nM
[2]
  IC50: 39.9 nM
[3]; IC50 (nM) (cRaf)
  IC50: 3300 nM

## Cc1cc2[nH]ncc2c(-c2c(F)cc3c(N4C[C@H]5CC[C@@](C)(C4)N5)nc(OC[C@]4(CN(C)C)CC4(F)F)nc3c2F)c1C(F)(F)F (single isomer, unassigned) [Ex 76a]
[1]; [4]
  IC50: 593 nM
[2]
  IC50: 12 nM
[3]; IC50 (nM) (cRaf)
  IC50: 1810 nM

## Cc1cc2[nH]ncc2c(-c2c(F)cc3c(N4C[C@H]5CC[C@@](C)(C4)N5)nc(OCC4(CN5CC[C@@H](F)C5)CC4)nc3c2F)c1C(F)(F)F (single isomer, unassigned) [Ex 80a]
[1]; [4]
  IC50: 737 nM
[2]
  IC50: 31.8 nM
[3]; IC50 (nM) (cRaf)
  IC50: 4050 nM

## Cc1cc2[nH]ncc2c(C2Cc3nc(OC[C@]4(CN(C)C)CC4(F)F)nc(N4C[C@H]5CC[C@@](C)(C4)N5)c3C(=O)O2)c1C(F)(F)F (single isomer, unassigned) [Ex. 96b]
[1]; [4]
  IC50: 657 nM
[2]
  IC50: 3.31 nM
[3]; IC50 (nM) (cRaf)
  IC50: 637 nM

## Cc1cc2[nH]ncc2c(C2Cc3nc(OCC4(CN5CC[C@@H](F)C5)CC4)nc(N4C[C@H]5CC[C@@](C)(C4)N5)c3C(=O)N2)c1C(F)(F)F (single isomer, unassigned) [Ex. 98a]
[1]; [4]
  IC50: 7270 nM
[2]
  IC50: 380 nM
[3]; read-out: IC50 (nM) (cRaf)
  IC50: 34200 nM

## Oc1cc(-c2c(F)cc3c(N4CC5CC(O)C(C4)N5)nc(OCC4(CN5CCOCC5)CC4)nc3c2F)c2ccccc2c1 (single isomer, unassigned) [Example 16]
[1]; [5]
  IC50: 5760 nM
[2]
  IC50: 30.2 nM
[3]; IC50 (nM) (cRaf)
  IC50: 871 nM

## Oc1cc(-c2c(F)cc3c(N4CC5CC(O)C(C4)N5)nc(OCC4(CN5CCOCC5)CC4)nc3c2F)c2ccccc2c1 (single isomer, unassigned) [Example 17]
[1]; [4]
  IC50: 7430 nM
[2]
  IC50: 52.1 nM
[3]; IC50 (nM) (cRaf)
  IC50: 3260 nM

## CN(C)CC1(COc2nc(N3C[C@H]4C[C@@H](O)[C@@H](C3)N4)c3cc(Cl)c(-c4cc(O)cc5ccccc45)c(F)c3n2)CC1 (single isomer, unassigned) [Example 18a]
[1]; [4]
  IC50: 20600 nM
[2]
  IC50: 8.97 nM
[3]; IC50 (nM) (cRaf)
  IC50: 293 nM

## CN(C)CC1(COc2nc(N3C[C@H]4C[C@@H](O)[C@@H](C3)N4)c3cc(Cl)c(-c4cc(O)cc5ccccc45)c(F)c3n2)CC1 (single isomer, unassigned) [Example 18b]
[1]; [4]
  IC50: 50800 nM
[2]
  IC50: 77.3 nM
[3]; IC50 (nM) (cRaf)
  IC50: 2680 nM

## CN(C)CC1(COc2nc(N3CC4CC(O)C(C3)N4)c3cc(Cl)c(-c4cc(O)cc5ccccc45)c(F)c3n2)CC1 (single isomer, unassigned) [Example 22b, 3-(6-chloro-2-((1-((dimethylamino)meth-yl)cyclo-propyl)methoxy)-8-fluoro-7-(3-hydroxy-naphthalen-1-yl)quinazolin-4-yl)-3,8-diazabicyclo[3.2.1]oc-tan-6-ol]
[1]; [4]
  IC50: 38300 nM
[2]
  IC50: 78.9 nM
[3]; IC50 (nM) (cRaf)
  IC50: 8450 nM

## CN(C)CC1(COc2nc(N3C[C@@]4(C)CC[C@H]3CN4)c3cc(Cl)c(-c4cc(O)cc5ccccc45)c(F)c3n2)CC1 (single isomer, unassigned) [Example 38a]
[1]; [4]
  IC50: 1280 nM
[2]
  IC50: 45.2 nM
[3]; IC50 (nM) (cRaf)
  IC50: 617 nM

## CN(C)CC1(COc2nc(N3C[C@@H]4C[C@H](O)C(C)(C3)N4)c3cc(Cl)c(-c4cc(O)cc5ccccc45)c(F)c3n2)CC1 (stereo in doubt) [Example 41, 3-(6-chloro-2-((1-((dimethylamino)methyl)cyclopropyl)methoxy)-8-fluoro-7-(3-hydroxynaphthalen-1-yl)quinazolin-4-yl)-5-methyl-3,8-diazabicyclo[3.2.1]octan-6-ol]
[1]; [5]
  IC50: 2840 nM
[2]
  IC50: 20.3 nM
[3]; IC50 (nM) (cRaf)
  IC50: 1270 nM

## CN(C)CC1(COc2nc(N3C[C@H]4NC(C)(C[C@H]4O)C3)c3cc(Cl)c(-c4cc(O)cc5ccccc45)c(F)c3n2)CC1 (stereo in doubt) [Example 42, 3-(6-chloro-2-((1-((dimethylamino)methyl)cyclopropyl)methoxy)-8-fluoro-7-(3-hydroxynaphthalen-1-yl)quinazolin-4-yl)-1-methyl-3,8-diazabicyclo [3.2.1]octan-6-ol]
[1]; [5]
  IC50: 8460 nM
[2]
  IC50: 17.5 nM
[3]; IC50 (nM) (cRaf)
  IC50: 20400 nM

## CN(C)CC1(COc2nc(N3CC4C[C@@H](O)[C@@](C)(C3)N4)c3cc(Cl)c(-c4cc(O)cc5ccccc45)c(F)c3n2)CC1 (stereo in doubt) [Example 43, 3-(6-chloro-2-((1-((dimethylamino)methyl)cyclopropyl)methoxy)-8-fluoro-7-(3-hydroxynaphthalen-1-yl)quinazolin-4-yl)-5-methyl-3,8-diazabicyclo [3.2.1]octan-6-ol]
[1]; [5]
  IC50: 12600 nM
[2]
  IC50: 74.3 nM
[3]; IC50 (nM) (cRaf)
  IC50: 2200 nM

## CN(C)C[C@@]1(COc2nc(N3C[C@H]4CC[C@@](C)(C3)N4)c3cc(F)c(-c4cc(O)cc5ccccc45)c(F)c3n2)CC1(F)F [Ex 69, 4-(2-(((R)-1-((dimethylamino)methyl)-2,2-difluorocyclopropyl)methoxy)-6,8-difluoro-4-((1S,5R)-1-methyl-3,8-diazabicyclo[3.2.1]octan-3-yl)quinazolin-7-yl)naphthalen-2-ol]
[1]; [5]
  IC50: 275 nM
[2]
  IC50: 1.76 nM
[3]; IC50 (nM) (cRaf)
  IC50: 194 nM

## CN1C[C@H](F)C[C@H]1COc1nc(N2C[C@H]3CC[C@@](C)(C2)N3)c2cc(F)c(-c3cc(O)cc4ccccc34)c(F)c2n1 [Ex 70, 4-(6,8-difluoro-2-(((2S,4R)-4-fluoro-1-methylpyrrolidin-2-yl)methoxy)-4-((1S,5R)-1-methyl-3,8-diazabicyclo[3.2.1]octan-3-yl)quinazolin-7-yl)naphthalen-2-ol]
[1]; [5]
  IC50: 2330 nM
[2]
  IC50: 43.5 nM
[3]; IC50 (nM) (cRaf)
  IC50: 5390 nM

## Cc1cc2[nH]ncc2c(-c2c(F)cc3c(N4CC5CCC(C4)N5)nc(OCC4(CN5CCOCC5)CC4)nc3c2F)c1C(F)(F)F [Ex 72, 4-((1-(((4-(3,8-diazabicyclo[3.2.1]octan-3-yl)-6,8-difluoro-7-(6-methyl-5-(trifluoromethyl)-1H-indazol-4-yl)quinazolin-2-yl)oxy)methyl)cyclopropyl)methyl)morpholine]
[1]; [5]
  IC50: 2500 nM
[2]
  IC50: 30.8 nM
[3]; IC50 (nM) (cRaf)
  IC50: 7440 nM

## CN(C)CC1(COc2nc(N3C[C@H]4CC[C@@H](C3)N4)c3cc(Cl)c(-c4cccc5cccc(C#N)c45)c(F)c3n2)CC1 [Example 60, 8-(4-((1R,5S)-3,8-diazabicyclo[3.2.1]octan-3-yl)-6-chloro-2-((1-((dimethylamino)methyl)cyclopropyl)methoxy)-8-fluoroquinazolin-7-yl)-1-naphthonitrile]
[1]; Homo sapiens, ASPC1, 2 h
  IC50: 8760 nM
[2]
  IC50: 1590 nM

## CN(C)CC1(COc2nc(N3C[C@H]4CC[C@@H](C3)N4)c3cc(Cl)c(-c4c(C(F)(F)F)ccc5[nH]ncc45)c(F)c3n2)CC1 [Example 63, 1-(1-(((4-((1R,5S)-3,8-diazabicyclo [3.2.1]octan-3-yl)-6-chloro-8-fluoro-7-(5-(trifluoromethyl)-1H-indazol-4-yl)quinazolin-2-yl)oxy)methyl)cyclopropyl)-N,N-dimethylmethanamine]
[1]; [5]
  IC50: 26800 nM
[2]
  IC50: 1590 nM

## Cc1cc2[nH]ncc2c(-c2c(F)cc3c(N4C[C@H]5CC[C@@H](C4)N5)nc(OCC4(CN(C)C)CC4(F)F)nc3c2F)c1Cl (stereo partly drawn) [Example 64, 1-(1-(((4-((1R,5S)-3,8-diazabicyclo[3.2.1]octan-3-yl)-7-(5-chloro-6-methyl-1H-indazol-4-yl)-6,8-difluoroquinazolin-2-yl)oxy)methyl)-2,2-difluorocyclopropyl)-N,N-dimethylmethanamine]
[1]; [5]
  IC50: 4380 nM
[2]
  IC50: 146 nM
